Patent US20260085034A1, “N-(BENZHYDRYL)CYCLOALKYLCARBOXAMIDE DERIVATIVES AS INHIBITORS OF GLYCOGEN SYNTHASE 1 (GYS1) AND METHODS OF USE THEREOF” (Maze Therapeutics, Inc., priority 2022, published 2026)

What was measured:
[1] = target: T1, recombinant hGYS1/GN1 protein (Homo sapiens, UniProt P13807); assay: GYS1 coupled enzyme assay (PK/LDH); assay type: biochemical; conditions: geometric mean of at least 2 assay runs; NADH absorbance at 340 nm
T1 sequence (P13807 1-737): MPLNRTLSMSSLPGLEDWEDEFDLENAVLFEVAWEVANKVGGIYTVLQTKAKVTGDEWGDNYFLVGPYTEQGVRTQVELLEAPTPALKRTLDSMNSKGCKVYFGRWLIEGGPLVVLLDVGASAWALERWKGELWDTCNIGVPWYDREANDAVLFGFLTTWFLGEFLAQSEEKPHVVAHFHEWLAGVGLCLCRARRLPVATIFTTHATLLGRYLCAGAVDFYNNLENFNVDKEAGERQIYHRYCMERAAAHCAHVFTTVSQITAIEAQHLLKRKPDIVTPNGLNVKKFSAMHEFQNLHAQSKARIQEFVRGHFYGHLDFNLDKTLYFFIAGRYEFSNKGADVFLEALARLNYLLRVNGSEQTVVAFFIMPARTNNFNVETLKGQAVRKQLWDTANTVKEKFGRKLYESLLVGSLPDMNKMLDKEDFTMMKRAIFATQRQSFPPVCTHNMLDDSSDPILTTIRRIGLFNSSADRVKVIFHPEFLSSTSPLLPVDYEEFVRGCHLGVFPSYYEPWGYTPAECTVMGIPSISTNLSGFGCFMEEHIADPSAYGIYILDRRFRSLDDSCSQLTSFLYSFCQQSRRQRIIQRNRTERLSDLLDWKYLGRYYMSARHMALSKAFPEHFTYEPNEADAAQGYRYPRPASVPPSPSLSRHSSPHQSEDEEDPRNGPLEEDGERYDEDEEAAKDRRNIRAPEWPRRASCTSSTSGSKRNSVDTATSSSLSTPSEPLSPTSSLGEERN
T1 sequence (P46976 1-350 partner): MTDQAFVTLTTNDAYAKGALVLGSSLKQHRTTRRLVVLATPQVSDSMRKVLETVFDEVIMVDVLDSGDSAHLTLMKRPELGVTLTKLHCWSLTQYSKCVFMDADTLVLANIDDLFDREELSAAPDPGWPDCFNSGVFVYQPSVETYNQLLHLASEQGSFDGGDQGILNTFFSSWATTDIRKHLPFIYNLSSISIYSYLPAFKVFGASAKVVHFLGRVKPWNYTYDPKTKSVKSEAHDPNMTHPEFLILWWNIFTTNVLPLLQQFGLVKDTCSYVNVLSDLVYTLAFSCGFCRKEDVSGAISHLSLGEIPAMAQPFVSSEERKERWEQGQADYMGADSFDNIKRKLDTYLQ
Excerpt: (§1) The GYS1 coupled enzyme assay is a kinetic biochemical assay that indirectly quantifies the rate of glycogen synthesis by coupling the conversion of GYS1 substrate UDP-glucose into UDP with downstream enzymatic reactions. UDP is released from UDP-glucose as glucose monomers are linked into the growing glycogen strand by GYS1. The coupled assay then proceeds with pyruvate kinase utilizing UDP and phospho(enol)pyruvate (PEP) to form pyruvate. Lactate dehydrogenase then converts pyruvate and NADH into lactate and NAD+. Oxidation of NADH to NAD+ can be measured continuously with a plate reader by quantifying the decrease in NADH absorbance at 340 nm over time.
Compounds that inhibit the hGYS1 enzyme and, subsequently, the downstream conversion of NADH to NAD+, were tested using assay ready plates (black, clear bottom 384 well plates) in a final DMSO reaction volume of 2.5% DMSO. The Assay Buffer contained 50 mM Tris pH 7.5, 2 mM MgCl2, and 100 mM KCl. Fresh stocks of BSA at a final concentration of 0.02% and TCEP at 1 mM were added before splitting buffer into hGYS1 buffer and substrate buffer. To the hGYS1 buffer, rabbit liver glycogen was added at a final concentration of 0.2% glycogen. Glucose-6-Phosphate was added at 1 mM, recombinant hGYS1/GN1 protein was added at 50 nM to the substrate buffer, phosphoenolpyruvate (PEP) was added at 2 mM, UDP-Glucose was added at 0.8 mM, NADH) was added at 0.6 mM, and Pyruvate Kinase/Lactate Dehydrogenase was added at 20 units/mL. The reaction was initiated by mixing hGYS1 buffer and substrate buffer at a 1:1 ratio. Both buffers were plated using a liquid dispensing device with hGYS1 buffer plated first followed by the substrate buffer. Plates were spun briefly to eliminate air bubbles and are immediately read in continuous mode at an absorbance of 340 nm, for 10 time points in one-minute increments, for a total of 10 minutes. The slope from these 10 time points was normalized to the positive and negative control wells. The duplicate % inhibition values are then averaged and fit to a Hill equation for dose response according to the Levenberg-Marquardt algorithm with the Hill equation maximum set to 100 and the minimum set to 0.
The results are shown in Table 3 below, which reports the IC50 of each compound. Unless otherwise specified, IC50 values are reported as the geometric mean of at least 2 assay runs on separate days. Each run represents the average of a technical replicate, where each compound was assayed twice in the same plate. As shown in the table below, the compounds of the present invention are potent inhibitors of human GYS1.

[2] = target: T2, recombinant hGYS2/GN1 protein (Homo sapiens, UniProt P54840); assay: GYS2 coupled enzyme assay (PK/LDH); assay type: biochemical; conditions: geometric mean of at least 2 assay runs; NADH absorbance at 340 nm
T2 sequence (P54840 1-703): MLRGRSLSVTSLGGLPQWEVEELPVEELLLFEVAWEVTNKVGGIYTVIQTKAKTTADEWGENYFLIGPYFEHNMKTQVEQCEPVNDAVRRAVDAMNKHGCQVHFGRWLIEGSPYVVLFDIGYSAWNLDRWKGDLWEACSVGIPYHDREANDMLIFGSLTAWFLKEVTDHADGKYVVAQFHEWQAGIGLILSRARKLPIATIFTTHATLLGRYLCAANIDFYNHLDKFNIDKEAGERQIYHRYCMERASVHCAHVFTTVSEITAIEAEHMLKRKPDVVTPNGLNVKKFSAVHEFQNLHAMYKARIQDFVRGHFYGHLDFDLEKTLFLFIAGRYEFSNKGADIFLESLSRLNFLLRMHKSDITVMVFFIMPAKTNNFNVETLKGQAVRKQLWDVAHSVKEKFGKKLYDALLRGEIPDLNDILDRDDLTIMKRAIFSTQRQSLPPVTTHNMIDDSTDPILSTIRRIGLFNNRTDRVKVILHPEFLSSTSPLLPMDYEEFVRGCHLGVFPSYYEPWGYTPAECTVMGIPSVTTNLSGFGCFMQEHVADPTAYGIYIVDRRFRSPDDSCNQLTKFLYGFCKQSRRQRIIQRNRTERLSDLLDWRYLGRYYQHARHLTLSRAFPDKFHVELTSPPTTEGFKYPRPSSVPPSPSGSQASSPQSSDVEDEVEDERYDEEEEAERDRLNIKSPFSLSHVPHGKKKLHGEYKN
T2 sequence (P46976 1-350 partner): T1 sequence (P46976 1-350 partner)
Excerpt: as §1, with “GYS2” for “GYS1”, “GYS2.” for “GYS1.”
Compounds that inhibit the hGYS2 enzyme and, subsequently, the downstream conversion of NADH to NAD+, were tested using assay ready plates (black, clear bottom 384 well plates) in a final DMSO reaction volume of 2.5% DMSO. The Assay Buffer contained 50 mM Tris pH 7.5, 2 mM MgCl2, and 100 mM KCl. Fresh stocks of BSA at a final concentration of 0.02% and TCEP 1 mM were added before splitting buffer into hGYS2 buffer and substrate buffer. To the hGYS2 buffer, rabbit liver glycogen was added at a final concentration of 0.2% glycogen. Glucose-6-Phosphate was added at 2 mM, recombinant hGYS2/GN1 protein was added at 200 nM to the substrate buffer, phosphoenolpyruvate (PEP) was added at 2 mM, UDP-Glucose was added at 2 mM, NADH was added at 0.6 mM, and Pyruvate Kinase/Lactate Dehydrogenase was added at 20 units/mL. The reaction was initiated by mixing hGYS2 buffer and substrate buffer at a 1:1 ratio. Both buffers were plated using a liquid dispensing device with hGYS2 buffer plated first followed by the substrate buffer. Plates were spun briefly to eliminate air bubbles and are immediately read in continuous mode at an absorbance of 340 nm, for 10 time points in one-minute increments, for a total of 10 minutes. The slope from these 10 time points was normalized to the positive and negative control wells. The duplicate % inhibition values are then averaged and fit to a Hill equation for dose response according to the Levenberg-Marquardt algorithm with the Hill equation maximum set to 100 and the minimum set to 0.
The results are shown in Table 5 below, which reports the IC50 of each compound. Unless otherwise specified, IC50 values are reported as the geometric mean of at least 2 assay runs on separate days. As shown in the table below, the compounds of the present invention are not potent inhibitors of human GYS2. […] Each run represents the average of a technical replicate, where each compound was assayed twice in the same plate.

IC50 [1] [nM] | IC50 [2] [nM] | Structure (SMILES)
376 | > 100000 | CC(C)c1ccc([C@@H](NC(=O)C2CC2)c2cccc(O)c2)cc1 [compound 62, (R)-N-((3-hydroxyphenyl)(4-isopropylphenyl)methyl)cyclopropanecarboxamide]
404 | > 100000 | CC(C)c1ccc([C@@H](NC(=O)C2CC2)c2ccccc2N)cc1 (single isomer, unassigned) [compound 64]
293 | > 100000 | CC(C)c1ccc([C@@H](NC(=O)C2CC2)c2ccccc2O)cc1 [compound 67, (R)-N-((2-hydroxyphenyl)(4-isopropylphenyl)methyl)cyclopropanecarboxamide]
2100 | > 100000 | Cc1cccc([C@H](NC(=O)C2CC2)c2ccc(C(C)C)cc2)c1 (single isomer, unassigned) [compound 66]
521 | > 100000 | CC(C)c1ccc([C@@H](NC(=O)C2CC2)c2ccccc2NC(=O)C2COC2)cc1 [compound 60, (R)-N-(2-(cyclopropanecarboxamido(4-isopropylphenyl)methyl)phenyl)oxetane-3-carboxamide]
514 | > 100000 | Cc1ccccc1[C@H](NC(=O)C1CC1)c1ccc(C(C)C)cc1 (single isomer, unassigned) [compound 65]
663 | > 97400 | CC(C)c1ccc([C@@H](NC(=O)C2CC2)c2ccc(O)cc2)cc1 [compound 68, (R)-N-((4-hydroxyphenyl)(4-isopropylphenyl)methyl)cyclopropanecarboxamide]
1430 | > 100000 | COc1cccc([C@H](NC(=O)C2CC2)c2ccc(C(C)C)cc2)c1C [compound 63, (R)-N-((4-isopropylphenyl)(3-methoxy-2-methylphenyl)methyl)cyclopropanecarboxamide]
710 | > 100000 | CC(C)c1ccc([C@@H](NC(=O)C2CC2)c2ccccc2NC(=O)C2CC2)cc1 (single isomer, unassigned) [compound 61]

The next lines start with the compound.

Structure (SMILES) | IC50 [1] [nM] | IC50 [2] [nM]
CC(C)c1ccc([C@@H](NC(=O)[C@H]2C[C@@H]2F)c2ccccc2)cc1 [compound 36, (1R,2S)-2-fluoro-N-((S)-(4-isopropylphenyl)(phenyl)methyl)cyclopropane-1-carboxamide] | 418 | > 100000
CC(C)c1ccc([C@@H](NC(=O)C2CC2)c2ccccc2Cl)cc1 (single isomer, unassigned) [compound 58] | 1380 | > 100000
CC(C)c1ccc([C@@H](NC(=O)C2CC2)c2ccccc2NC(=O)C2CN(C)C2)cc1 [compound 26, (R)-N-(2-(cyclopropanecarboxamido(4-isopropylphenyl)methyl)phenyl)-1-methylazetidine-3-carboxamide] | 1190 | > 100000
CC(C)c1ccc([C@@H](NC(=O)[C@H]2C[C@@H]2F)c2ccccc2NC(=O)C2CCN(CC(F)(F)F)CC2)cc1 [compound 9, N-(2-((R)-((1R,2S)-2-fluorocyclopropane-1-carboxamido)(4-isopropylphenyl)methyl)phenyl)-1-(2,2,2-trifluoroethyl)piperidine-4-carboxamide] | 956 | > 100000
CC(C)c1ccc([C@@H](NC(=O)[C@H]2C[C@@H]2F)c2ccccc2NC(=O)C2CCN(CC3CC3)CC2)cc1 [compound 14, 1-(cyclopropylmethyl)-N-(2-((R)-((1R,2S)-2-fluorocyclopropane-1-carboxamido)(4-isopropylphenyl)methyl)phenyl)piperidine-4-carboxamide] | 891 | > 100000
CC(C)c1ccc([C@@H](NC(=O)C2CC2)c2ccccc2)cc1F (single isomer, unassigned) [compound 52] | 591 | > 100000
CC(C)c1ccc([C@@H](NC(=O)C2CC2)c2ccccc2NC(=O)C2CNC2)cc1 [compound 48, (R)-N-(2-(cyclopropanecarboxamido(4-isopropylphenyl)methyl)phenyl)azetidine-3-carboxamide] | 1060 | > 100000
